Test results taken from ChEMBL document CHEMBL6078677, “Discovery and optimization of tetrahydroacridine derivatives as a novel class of antibiotics against multidrug-resistant Gram-positive pathogens by targeting type I signal peptidase and disrupting bacterial membrane” (Eur J Med Chem, 2025).
Values after ≈ are worked out from the molar mass of the structure shown. Active and inactive are the calls of the source. The rule behind the calls is not given here.

Assays:
[1] = tested on: Acinetobacter baumannii; test: Antimicrobial activity against Acinetobacter baumannii 7979 assessed as inhibition of visible growth of bacteria incubated for 20 hrs by broth microdilution method; format: functional
[2] = tested on: Streptococcus pyogenes; test: Antimicrobial activity against Streptococcus pyogenes DL02 harboring erythromycin-resistance rRNA methylase B assessed as inhibition of visible growth of bacteria incubated for 20 hrs by broth microdilution method; format: functional
[3] = tested on: Enterococcus faecalis; test: microbe, parasite or virus in culture; format: functional; conditions: SF23-1, time 20 hrs
Description: Antimicrobial activity against Enterococcus faecalis SF23-1 harboring erythromycin-resistance rRNA methylase B, tetracycline efflux protein L and chloramphenicol-florfenicol resistance methylase assessed as inhibition of visible growth of bacteria incubated for 20 hrs by broth microdilution method

[4] = Cytotoxicity against human HEp-2 cells assessed as cell viability at 2 times of MIC incubated for 48 hrs by CCK8 assay (reference value: 100 %); format: toxicity, cell-based; conditions: read-out: Activity
[5] = Cytotoxicity against human HEp-2 cells assessed as cell viability at 16 times of MIC incubated for 48 hrs by CCK8 assay (reference value: 100 %); format: toxicity, cell-based; conditions: read-out: Activity
[6] = tested on: Streptococcus agalactiae; test: Antimicrobial activity against Streptococcus agalactiae DL03 harboring erythromycin-resistance rRNA methylase B assessed as inhibition of visible growth of bacteria incubated for 20 hrs by broth microdilution method; format: functional
[7] = Hemolytic activity in Kunming mouse erythrocytes assessed as hemolysis at 2 times of MIC measured after 1 hrs by absorbance based assay relative to control; format: toxicity, cell-based, Erythrocyte; conditions: read-out: Activity
[8] = tested on: Staphylococcus aureus; test: Drug resistance, ratio of MIC for Staphylococcus aureus ATCC 29213 measured after 28 days to MIC for Staphylococcus aureus ATCC 29213 measured after 20 hrs; format: functional
[9] = Hemolytic activity in Kunming mouse erythrocytes assessed as hemolysis at 16 times of MIC measured after 1 hrs by absorbance based assay relative to control; format: toxicity, cell-based, Erythrocyte; conditions: read-out: Activity
[10] = tested on: Escherichia coli; test: Antimicrobial activity against Escherichia coli ATCC 25922 assessed as inhibition of visible growth of bacteria incubated for 20 hrs by broth microdilution method; format: functional
[11] = tested on: Enterococcus faecium; test: Antimicrobial activity against Enterococcus faecium QF31 harboring erythromycin resistance rRNA methylase B and chloramphenicol-florfenicol resistance methylase assessed as inhibition of visible growth of bacteria incubated for 20 hrs by broth microdilution method; format: functional
[12] = tested on: Staphylococcus aureus; test: microbe, parasite or virus in culture; format: functional; conditions: M147-2, time 20 hrs
Description: Antimicrobial activity against Staphylococcus aureus M147-2 harboring erythromycin resistance rRNA methylase B, tetracycline efflux protein L and chloramphenicol-florfenicol resistance methylase assessed as inhibition of visible growth of bacteria incubated for 20 hrs by broth microdilution method

[13] = tested on: Pseudomonas aeruginosa; test: Antimicrobial activity against Pseudomonas aeruginosa PA01 assessed as inhibition of visible growth of bacteria incubated for 20 hrs by broth microdilution method; format: functional
[14] = tested on: Salmonella enteritidis; test: Antimicrobial activity against Salmonella enteritis S1 assessed as inhibition of visible growth of bacteria incubated for 20 hrs by broth microdilution method; format: functional, Salmonella enterica subsp. enterica serovar Enteritidis; conditions: Salmonella enterica
[15] = Cytotoxicity against human HEp-2 cells assessed as cell viability at 1 time of MIC incubated for 48 hrs by CCK8 assay (reference value: 100 %); format: toxicity, cell-based; conditions: read-out: Activity
[16] = tested on: Pseudomonas aeruginosa; test: Antimicrobial activity against Pseudomonas aeruginosa PA14 assessed as inhibition of visible growth of bacteria incubated for 20 hrs by broth microdilution method; format: functional
[17] = tested on: Staphylococcus aureus; test: Antimicrobial activity against Staphylococcus aureus ATCC 29213 assessed as inhibition of visible growth of bacteria incubated for 20 hrs by broth microdilution method; format: functional
[18] = Hemolytic activity in Kunming mouse erythrocytes assessed as hemolysis at 4 times of MIC measured after 1 hrs by absorbance based assay relative to control; format: toxicity, cell-based, Erythrocyte; conditions: read-out: Activity
[19] = tested on: Staphylococcus aureus; test: Bactericidal activity against Staphylococcus aureus ATCC 29213 assessed as bacterial killing at 8 times of MIC measured within 12 hrs by time-kill kinetics assay; format: functional, organism-based
[20] = Cytotoxicity against human Caco-2 cells assessed as cell viability at 8 times of MIC incubated for 48 hrs by CCK8 assay (reference value: 99.54 %); format: toxicity, cell-based; conditions: read-out: Activity
[21] = tested on: Enterococcus faecalis; test: Antimicrobial activity against Enterococcus faecalis J2 harboring erythromycin-resistance rRNA methylase B and oxazolidinone phenicol transferable resistance gene assessed as inhibition of visible growth of bacteria incubated for 20 hrs by broth microdilution method; format: functional
[22] = tested on: Streptococcus suis; test: microbe, parasite or virus in culture; format: functional; conditions: SH0918, time 20 hrs
Description: Antimicrobial activity against Streptococcus suis SH0918 harboring erythromycin-resistance rRNA methylase B, tetracycline efflux protein O and oxazolidinone phenicol transferable resistance gene assessed as inhibition of visible growth of bacteria incubated for 20 hrs by broth microdilution method

[23] = Hemolytic activity in Kunming mouse erythrocytes assessed as hemolysis at 8 times of MIC measured after 1 hrs by absorbance based assay relative to control; format: toxicity, cell-based, Erythrocyte; conditions: read-out: Activity
[24] = Cytotoxicity against human Caco-2 cells assessed as cell viability at 2 times of MIC incubated for 48 hrs by CCK8 assay (reference value: 99.54 %); format: toxicity, cell-based; conditions: read-out: Activity
[25] = tested on: Staphylococcus aureus; test: microbe, parasite or virus in culture; format: functional; conditions: M92-1, time 20 hrs
Description: Antimicrobial activity against Staphylococcus aureus M92-1 harboring erythromycin resistance rRNA methylase B, tetracycline efflux protein L and oxazolidinone-phenicol transferable resistance gene assessed as inhibition of visible growth of bacteria incubated for 20 hrs by broth microdilution method

[26] = tested on: Streptococcus suis; test: Antimicrobial activity against Streptococcus suis P1/7 assessed as inhibition of visible growth of bacteria incubated for 20 hrs by broth microdilution method; format: functional
[27] = tested on: Enterococcus faecium; test: Antimicrobial activity against Enterococcus faecium MC38 harboring erythromycin resistance rRNA methylase B and oxazolidinone-phenicol transferable resistance gene assessed as inhibition of visible growth of bacteria incubated for 20 hrs by broth microdilution method; format: functional
[28] = Cytotoxicity against human HEp-2 cells assessed as cell viability at 4 times of MIC incubated for 48 hrs by CCK8 assay (reference value: 100 %); format: toxicity, cell-based; conditions: read-out: Activity
[29] = tested on: Enterococcus faecalis; test: Antimicrobial activity against Enterococcus faecalis ES01 harboring erythromycin-resistance rRNA methylase B and vanB-type vancomycin-resistance locus assessed as inhibition of visible growth of bacteria incubated for 20 hrs by broth microdilution method; format: functional
[30] = Cytotoxicity against human HEp-2 cells assessed as cell viability at 8 times of MIC incubated for 48 hrs by CCK8 assay (reference value: 100 %); format: toxicity, cell-based; conditions: read-out: Activity
[31] = tested on: Staphylococcus aureus; test: Antimicrobial activity against Staphylococcus aureus YZSA-15 harboring erythromycin resistance rRNA methylase C and vancomycin resistance locus assessed as inhibition of visible growth of bacteria incubated for 20 hrs by broth microdilution method; format: functional
[32] = tested on: Klebsiella pneumoniae; test: Antimicrobial activity against Klebsiella pneumoniae 9-1 assessed as inhibition of visible growth of bacteria incubated for 20 hrs by broth microdilution method; format: functional
[33] = tested on: Enterococcus faecalis; test: Antimicrobial activity against Enterococcus faecalis JH2-2 assessed as inhibition of visible growth of bacteria incubated for 20 hrs by broth microdilution method; format: functional
[34] = tested on: Staphylococcus aureus; test: Bactericidal activity against Staphylococcus aureus ATCC 29213 assessed as decrease in bacterial number measured within 12 hrs by time-kill kinetics assay; format: functional, organism-based
[35] = tested on: Staphylococcus aureus; test: Antimicrobial activity against Staphylococcus aureus YZSA-24 harboring erythromycin resistance rRNA methylase C and methicillin resistance gene resistance locus assessed as inhibition of visible growth of bacteria incubated for 20 hrs by broth microdilution method; format: functional
[36] = Hemolytic activity in Kunming mouse erythrocytes measured after 1 hrs by absorbance based assay; format: toxicity, cell-based, Erythrocyte
[37] = Cytotoxicity against human Caco-2 cells assessed as cell viability at 1 time of MIC incubated for 48 hrs by CCK8 assay (reference value: 99.54 %); format: toxicity, cell-based; conditions: read-out: Activity
[38] = Cytotoxicity against human Caco-2 cells assessed as cell viability at 4 times of MIC incubated for 48 hrs by CCK8 assay (reference value: 99.54 %); format: toxicity, cell-based; conditions: read-out: Activity
[39] = tested on: Staphylococcus aureus; test: Bactericidal activity against Staphylococcus aureus ATCC 29213 assessed as bacterial eradication at 4 times of MIC measured after 24 hrs by time-kill kinetics assay relative to control; format: functional
[40] = tested on: Enterococcus faecium; test: Antimicrobial activity against Enterococcus faecium HFY01 assessed as inhibition of visible growth of bacteria incubated for 20 hrs by broth microdilution method; format: functional
[41] = tested on: Staphylococcus aureus; test: Antimicrobial activity against Staphylococcus aureus YZSA-21 harboring erythromycin resistance rRNA methylase C assessed as inhibition of visible growth of bacteria incubated for 20 hrs by broth microdilution method; format: functional
[42] = Hemolytic activity in Kunming mouse erythrocytes assessed as hemolysis at 1 time of MIC measured after 1 hrs by absorbance based assay relative to control; format: toxicity, cell-based, Erythrocyte; conditions: read-out: Activity
[43] = Cytotoxicity against human Caco-2 cells assessed as cell viability at 16 times of MIC incubated for 48 hrs by CCK8 assay (reference value: 99.54 %); format: toxicity, cell-based; conditions: read-out: Activity
[44] = tested on: Acinetobacter baumannii; test: Antimicrobial activity against Acinetobacter baumannii AB11 assessed as inhibition of visible growth of bacteria incubated for 20 hrs by broth microdilution method; format: functional

COc1ccc2nc3c(c(C(=O)O)c2c1)CC(C)C/C3=C\c1cccc(-c2ccc(Cl)c(C(F)(F)F)c2)c1 (racemic)
MIC [1]: > 128 µg/mL | MIC [2]: 16 µg/mL (≈ 29.7 µM) | MIC [3]: 4 µg/mL (≈ 7.44 µM) | viability at 48 h, 2 times of MIC [4]: 84.8% | viability at 48 h, 16 times of MIC [5]: 2.42% | MIC [6]: 32 µg/mL (≈ 59.5 µM) | hemolysis at 1 h, 2 times of MIC [7]: 0% | Ratio [8]: 4 | hemolysis at 1 h, 16 times of MIC [9]: 63.5% | MIC [10]: > 128 µg/mL | MIC [11]: 4 µg/mL (≈ 7.44 µM) | MIC [12]: 2 µg/mL (≈ 3.72 µM) | MIC [13]: > 128 µg/mL | MIC [14]: > 128 µg/mL | viability at 48 h, 1 time of MIC [15]: 89.8% | MIC [16]: > 128 µg/mL | MIC [17]: 2 µg/mL (≈ 3.72 µM) | hemolysis at 1 h, 4 times of MIC [18]: 1.8% | Activity [19]: Active | viability at 48 h, 8 times of MIC [20]: 36.6% | MIC [21]: 8 µg/mL (≈ 14.9 µM) | MIC [22]: 16 µg/mL (≈ 29.7 µM) | hemolysis at 1 h, 8 times of MIC [23]: 22.3% | viability at 48 h, 2 times of MIC [24]: 69.8% | MIC [25]: 2 µg/mL (≈ 3.72 µM) | MIC [26]: 8 µg/mL (≈ 14.9 µM) | MIC [27]: 4 µg/mL (≈ 7.44 µM) | viability at 48 h, 4 times of MIC [28]: 66% | MIC [29]: 4 µg/mL (≈ 7.44 µM) | viability at 48 h, 8 times of MIC [30]: 35.5% | MIC [31]: 2 µg/mL (≈ 3.72 µM) | MIC [32]: > 128 µg/mL | MIC [33]: 4 µg/mL (≈ 7.44 µM) | Activity [34]: Dose-dependent-effect | MIC [35]: 2 µg/mL (≈ 3.72 µM) | HC50 at 1 h [36]: 25.9 µg/mL | viability at 48 h, 1 time of MIC [37]: 89.6% | viability at 48 h, 4 times of MIC [38]: 51.9% | Activity [39]: 100% | MIC [40]: 4 µg/mL (≈ 7.44 µM) | MIC [41]: 2 µg/mL (≈ 3.72 µM) | hemolysis at 1 h, 1 time of MIC [42]: 0% | viability at 48 h, 16 times of MIC [43]: 5.84% | MIC [44]: > 128 µg/mL
